Results taken from ChEMBL document CHEMBL3102715, “Synthesis and anti-rhinovirus activity of novel 3-[2-(pyridinyl)vinyl]substituted -2H-chromenes and -4H-chromen-4-ones” (Bioorg Med Chem, 2014).
Calls of active or inactive are those of the source. The rule behind the calls is not given here.

What was measured:
[1] = Selectivity index, ratio of CC50 for human HeLa cells to IC50 for HRV 14 infected in human HeLa cells; format: functional
rhinovirus A1B [2] = experiment: Antiviral activity against HRV 1B infected in human HeLa cells assessed as reduction in plaque number after 3 days by neutral red assay; format: functional, organism-based, Human rhinovirus 1B; settings: Rhinovirus A, 72 h
[3] = Cytotoxicity against human HeLa cells assessed as reduction in cell viability after 3 days by XTT assay; format: cell-based; settings: for MNTC at 72 h: read-out: MNCC
[4] = Selectivity index, ratio of CC50 for human HeLa cells to IC50 for HRV 1B infected in human HeLa cells; format: functional
rhinovirus B14 [5] = experiment: Antiviral activity against HRV 14 infected in human HeLa cells assessed as reduction in plaque number after 3 days by neutral red assay; format: functional, organism-based; settings: Rhinovirus B, 72 h
rhinovirus A1B [6] = experiment: Antiviral activity against HRV 1B infected in human HeLa cells assessed as log reduction in infectivity at 43 uM after 10 hrs by plaque assay at pH 5.0 relative to control; format: functional, Human rhinovirus 1B
rhinovirus B14 [7] = experiment: Antiviral activity against HRV 14 infected in human HeLa cells assessed as log reduction in infectivity at 58 uM after 10 hrs by plaque assay at 56 degC relative to control; format: functional
rhinovirus B14 [8] = experiment: Antiviral activity against HRV 14 infected in human HeLa cells assessed as inhibition of viral yield at 58 uM treated at 1 hr after virus adsorption period measured after 10 hrs by plaque assay relative to control; format: functional; settings: Rhinovirus B
rhinovirus A1B [9] = experiment: Antiviral activity against HRV 1B infected in human HeLa cells assessed as inhibition of viral yield compound treated at 43 uM during 1 hr at 4 degC followed by compound washout by plaque assay; format: functional, Human rhinovirus 1B; settings: Rhinovirus A
rhinovirus A1B [10] = experiment: Antiviral activity against HRV 1B infected in human HeLa cells assessed as half-maximal reduction of viral yield at 43 uM treated 45 mins post adsorption period measured after 10 hrs by plaque assay; format: functional, organism-based; settings: Human rhinovirus 1B
rhinovirus A1B [11] = experiment: Antiviral activity against HRV 1B infected in human HeLa cells assessed as inhibition of viral yield at 43 uM treated at 1 hr after virus adsorption period measured after 10 hrs by plaque assay relative to control; format: functional, Human rhinovirus 1B; settings: Rhinovirus A
rhinovirus A1B [12] = experiment: Antiviral activity against HRV 1B infected in human HeLa cells assessed as inhibition of viral yield at 43 uM treated during 10 hrs multiplication period by plaque assay relative to control; format: functional, Human rhinovirus 1B; settings: Rhinovirus A
rhinovirus A1B [13] = experiment: Antiviral activity against HRV 1B infected in human HeLa cells assessed as log reduction in infectivity at 43 uM after 10 hrs by plaque assay at 56 degC relative to control; format: functional, Human rhinovirus 1B
rhinovirus B14 [14] = experiment: Antiviral activity against HRV 14 infected in human HeLa cells assessed as inhibition of viral yield compound treated at 58 uM prior to 1 hr incubated at 4 degC followed by 10 hrs at 33 degC infection period by plaque assay; format: functional
rhinovirus A1B [15] = experiment: Antiviral activity against HRV 1B infected in human HeLa cells assessed as inhibition of viral yield compound treated at 43 uM for 1 hr prior infection followed by compound wash-out by plaque assay; format: functional, Human rhinovirus 1B; settings: Rhinovirus A
rhinovirus B14 [16] = experiment: Antiviral activity against HRV 14 infected in human HeLa cells assessed as log reduction in infectivity at 58 uM after 10 hrs by plaque assay at pH 5.0 relative to control; format: functional
rhinovirus B14 [17] = experiment: Antiviral activity against HRV 14 infected in human HeLa cells assessed as inhibition of viral yield at 58 uM treated during 10 hrs multiplication period by plaque assay relative to control; format: functional; settings: Rhinovirus B
rhinovirus A1B [18] = experiment: Antiviral activity against HRV 1B infected in human HeLa cells assessed as inhibition of viral yield compound treated at 43 uM prior to 1 hr incubated at 4 degC followed by 10 hrs at 33 degC infection period by plaque assay; format: functional, Human rhinovirus 1B
rhinovirus B14 [19] = experiment: Antiviral activity against HRV 14 infected in human HeLa cells assessed as half-maximal reduction of viral yield at 58 uM treated 1 hr post adsorption period measured after 10 hrs by plaque assay; format: functional, organism-based
rhinovirus B14 [20] = experiment: Antiviral activity against HRV 14 infected in human HeLa cells assessed as inhibition of viral yield compound treated at 58 uM during 1 hr at 4 degC followed by compound washout by plaque assay; format: functional; settings: Rhinovirus B
rhinovirus B14 [21] = experiment: Antiviral activity against HRV 14 infected in human HeLa cells assessed as maximal reduction of viral yield at 58 uM treated 6 hrs post adsorption period measured after 10 hrs by plaque assay; format: functional, organism-based
rhinovirus A1B [22] = experiment: Antiviral activity against HRV 1B infected in human HeLa cells assessed as reduction of viral yield at 43 uM treated 2 hrs post infection measured after 10 hrs by plaque assay; format: functional, organism-based; settings: Human rhinovirus 1B
rhinovirus A1B [23] = experiment: Antiviral activity against HRV 1B infected in human HeLa cells assessed as maximal reduction of viral yield at 43 uM treated 4 hrs post adsorption period measured after 10 hrs by plaque assay; format: functional, organism-based; settings: Human rhinovirus 1B
rhinovirus B14 [24] = experiment: Antiviral activity against HRV 14 infected in human HeLa cells assessed as inhibition of viral yield compound treated at 58 uM for 1 hr prior infection followed by compound wash-out by plaque assay; format: functional; settings: Rhinovirus B
rhinovirus B14 [25] = experiment: Antiviral activity against HRV 14 infected in human HeLa cells assessed as reduction of viral yield at 58 uM treated 4 hrs post infection measured after 10 hrs by plaque assay; format: functional, organism-based
rhinovirus A1B [26] = experiment: Antiviral activity against HRV 1B infected in human HeLa cells assessed as reduction in plaque number at maximum non-cytotoxic concentration after 3 days by neutral red assay; format: functional, Human rhinovirus 1B; set-up: scale not given: the % may be the effect or the level left

Row | SMILES | Ratio CC50/IC50 [1] | IC50 (rhinovirus A1B [2]) [µM] | CC50 at 72 h [3] [µM] | MNTC at 72 h [3] [µM] | Ratio CC50/IC50 [4] | IC50 (rhinovirus B14 [5]) [µM] | other results
1 | C1=C(/C=C\c2ccncc2)COc2ccccc21 | 17.24 | 0.71 | 50 | 25 | 70.42 | 2.9 | 
2 | O=c1c(/C=C\c2cccnc2)coc2ccccc12 | >12.98 | 46.8 | > 200 | > 200 | >4.28 | 15.4 | 
3 | O=c1c(/C=C/c2ccncc2)coc2ccc(Cl)cc12 | 9.6 | 19.1 | 150 | 100 | 7.87 | 15.6 | 
4 | C1=C(/C=C\c2cccnc2)COc2ccccc21 | 4 | 0.98 | 37.5 | 25 | 38.26 | 9.37 | 
5 | Clc1ccc2c(c1)C=C(/C=C/c1cccnc1)CO2 | 8.78 | 4.34 | 37.5 | 25 | 8.64 | 4.27 | 
6 | Clc1ccc2c(c1)C=C(/C=C/c1ccccn1)CO2 | >5.58 | 1.69 | > 50 | > 50 | >29.59 | 8.96 | 
7 | Clc1ccc2c(c1)C=C(/C=C/c1ccncc1)CO2 | 11.17 | 4.74 | 75 | 50 | 15.82 | 6.71 | 
8 | C1=C(/C=C/c2ccccn2)COc2ccccc21 | >17.06 | 1.7 | > 50 | > 50 | >29.41 | 2.93 | FC (rhinovirus A1B [6]): 1; FC (rhinovirus B14 [7]): 0.9; inhibition at 58 µM (rhinovirus B14 [8]): 90%; inhibition at 43 µM (rhinovirus A1B [9]): 14%; Activity (rhinovirus A1B [10]): Active; inhibition at 43 µM (rhinovirus A1B [11]): 90%; inhibition at 43 µM (rhinovirus A1B [12]): 90%; FC (rhinovirus A1B [13]): 1.1; inhibition (INH) (rhinovirus B14 [14]): 90%; inhibition at 43 µM (rhinovirus A1B [15]): 24%; FC (rhinovirus B14 [16]): 0.9; inhibition at 58 µM (rhinovirus B14 [17]): 90%; inhibition (INH) (rhinovirus A1B [18]): 90%; Activity (rhinovirus B14 [19]): Active; inhibition at 58 µM (rhinovirus B14 [20]): 16%; Activity (rhinovirus B14 [21]): Active; Activity (rhinovirus A1B [22]): inactive; Activity (rhinovirus A1B [23]): Active; inhibition at 58 µM (rhinovirus B14 [24]): 1%; Activity (rhinovirus B14 [25]): inactive
9 | O=c1c(/C=C/c2ccccn2)coc2ccccc12 | >28.25 | 5.15 | > 200 | > 200 | >38.84 | 7.08 | 
10 | C1=C(/C=C/c2cccnc2)COc2ccccc21 | 19.33 | 4.57 | 75 | 25 | 16.41 | 3.88 | 
11 | C1=C(/C=C/c2ccncc2)COc2ccccc21 | 24.75 | 1.96 | 75 | 50 | 38.26 | 3.03 | 
12 | O=c1c(/C=C\c2cccnc2)coc2ccc(Cl)cc12 | 4.94 | 4.26 | 50 | 25 | 11.74 | 10.1 | 
13 | O=c1c(/C=C/c2ccncc2)coc2ccccc12 | >1.08 | > 100 | > 100 | > 100 |  | 92.1 | Activity (rhinovirus A1B [26]): 22%
14 | O=c1c(/C=C/c2ccccn2)coc2ccc(Cl)cc12 | >9.8 | 1.6 | > 50 | > 50 | >31.25 | 5.1 | 
